This is an account of results in US20260317324A1, “BIFUNCTIONAL COMPOUNDS FOR DEGRADING BRAF VIA UBIQUITIN PROTEOSOME PATHWAY” (Nurix Therapeutics, Inc., priority 2023, published 2026).

By DC50 is commonly meant the midpoint of the concentration-degradation curve. Read a low DC50 as degradation at low concentration. By Dmax is commonly meant the greatest extent of degradation seen.

For this test, the target named is T1, BRAF V600E (Homo sapiens, UniProt P15056, V600E).
T1 construct: endogenous C-terminal HiBiT fusion tag on BRAF V600E allele; endogenous in cells; host or cells: A375 clone 1F10 (CRISPR-Cas9 knock-in of the HiBiT tag; parental A375 from ATCC)
Kind of test: BRAF HiBiT degradation assay, C-terminal HiBiT-tagged BRAF V600E A375 cells (clone 1F10), Nano-Glo HiBiT Lytic assay. The format is cell-based. Particulars: A375 (BRAF V600E); for DC50: DC50 at 50%: fitted conc. at Y=50; for Dmax: A-375, percentage protein degraded at maximal compound effect relative to DMSO. An excerpt:
An A375 cell line expressing a homozygous V600E mutation was purchased from ATCC (Manassas, VA, USA). An A375 clone 1F10 cell line with an endogenous C-terminal HiBiT fusion tag on BRAF V600E allele was generated internally using CRISPR-Cas9 technology and cultured in DMEM, high glucose supplemented with 10% FBS and 1× GlutaMAX. A HCT-116 BRAF−/− cell line overexpressing the C-terminal HiBiT-tagged G466V, G469A, and D594G mutants were generated by lentiviral transduction, externally at Biosettia Inc (San Diego, CA, USA). The stably transfected cells were cultured in RPMI media supplemented with 10% FBS, 1× GlutaMAX, and 0.25 μg/ml puromycin. DMEM medium, RPMI 1640 medium, GlutaMAX, fetal bovine serum (FBS), and puromycin were purchased from Gibco (Grand Island, NY, USA). HCT-116 BRAF−/− cells were purchased from Horizon Discovery (Waterbeach, UK).
The C-terminal HiBiT tagged BRAF A375 cells (monoclonal cell line, cell clone 1F10) were seeded at a density of 10,000 cells/well in 30 μL media (DMEM, high glucose supplemented with 10% FBS and 1× GlutaMAX) in white opaque 384-well plates (Corning #3570) from column 1 to column 23. The wildtype A375 cells were seeded in column 24 at the same cell density in 30 μL media. Cells were incubated at 37° C. with 5% CO2 for 24 h.
Intermediate compound dilution series (5-point, ranging from 5 mM to 0.5 μM, 10-fold dilutions in DMSO) were prepared in a source plate (Beckman Coulter cat. no. 001-16128). Final compound dilution series (11-point, ranging from 1 μM to 0.01 nM, half-log dilutions in DMSO) were stamped into the assay plate (Corning #3570, column 1-11 and 12-22) using the Echo Acoustic Liquid Handler (Beckman Coulter). Each compound was plated in duplicate, and the total volume of compound DMSO solution was 60 nL/well (0.2% final DMSO concentration). DMSO was included in wells A23-L23 and A24-L24. The DMSO-treated HiBiT-tagged samples served as Negative Control (NC) and the DMSO-treated wildtype samples served as Background Control (BC) for the HiBiT assay.
HiBiT signal was measured by a Nano-Glo HiBiT Lytic assay (Promega cat. no. N3050). HiBiT lytic detection reagent (Nano-Glo HiBiT Lytic Buffer with 1:50 Nano-Glo HiBiT Lytic Substrate and 1:100 LgBiT Protein, 40 μL) was added using Bravo. The mixture was incubated at room temperature, in the dark, and with gentle shaking for 10 min. Luminesce units (LU) were read on an EnVision plate reader 2105 (Perkin Elmer).
Percent protein remaining and viability remaining per sample were calculated as follows: […]
% Protein remaining values were plotted as a function of compound concentration. XC50 (DC50) values were determined by fitting curves using the following equation:
For the HiBiT degradation assay, the key parameters reported include: • The dose of compound that produces 50% degradation (DC50 at 50%): • DC50 at 50%: the Fitted X value (Conc.) at Y=50 (response) • Observed Dmax (Obs. Dmax) is the percentage protein degraded at maximal compound effect relative to DMSO-treated control: […]

A value given as a limit tells only on which side of the number the result lay.

T1 sequence (P15056 whole entry V600E, the tested form may be a part): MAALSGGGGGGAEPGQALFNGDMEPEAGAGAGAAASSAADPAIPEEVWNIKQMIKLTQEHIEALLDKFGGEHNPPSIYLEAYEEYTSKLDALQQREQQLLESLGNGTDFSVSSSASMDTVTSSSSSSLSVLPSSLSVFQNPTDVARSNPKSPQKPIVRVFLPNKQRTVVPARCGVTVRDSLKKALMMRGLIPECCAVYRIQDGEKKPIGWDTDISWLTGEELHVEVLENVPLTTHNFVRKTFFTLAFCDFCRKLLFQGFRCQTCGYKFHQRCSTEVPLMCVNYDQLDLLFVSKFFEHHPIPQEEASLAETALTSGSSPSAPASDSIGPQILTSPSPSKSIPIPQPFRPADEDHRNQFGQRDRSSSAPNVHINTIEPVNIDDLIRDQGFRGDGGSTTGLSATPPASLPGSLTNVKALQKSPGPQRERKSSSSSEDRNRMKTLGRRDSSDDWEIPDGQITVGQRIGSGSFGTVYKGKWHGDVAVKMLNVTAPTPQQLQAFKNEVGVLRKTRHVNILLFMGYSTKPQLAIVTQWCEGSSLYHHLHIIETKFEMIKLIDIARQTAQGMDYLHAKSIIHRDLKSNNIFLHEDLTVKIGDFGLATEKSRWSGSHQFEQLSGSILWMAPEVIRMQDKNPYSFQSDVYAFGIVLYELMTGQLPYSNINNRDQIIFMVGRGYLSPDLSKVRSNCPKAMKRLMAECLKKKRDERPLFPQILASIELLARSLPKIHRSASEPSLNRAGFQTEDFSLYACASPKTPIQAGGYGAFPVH

Consider `CCCS(=O)(=O)Nc1cccc(-c2nc(C(C)(C)C)sc2-c2ccnc(Nc3cccc(OC4CCN(C(=O)C5CCN(c6ccc(C(=O)NC7CCC(=O)NC7=O)nc6)CC5)CC4)c3)n2)c1F` (racemic) [Compound 95, Rac-5-[4-(4-{3-[(4-{2-tert-butyl-4-[2-fluoro-3-(propane-1-sulfonamido)phenyl]-1,3-thiazol-5-yl}pyrimidin-2-yl)amino]phenoxy}piperidine-1-carbonyl)piperidin-1-yl]-N-[(3R)-2,6-dioxopiperidin-3-yl]pyridine-2-carboxamide], for which the DC50 is 0.01 to 0.05 µM and the Dmax was in the range of 30 to 70%.
Consider `CCCS(=O)(=O)Nc1cccc(-c2cn(-c3ccc(C(=O)N4CCN(C(=O)C5CCN(c6ccc(C7CCC(=O)NC7=O)cc6)CC5)CC4)cc3)nc2-c2ccncc2)c1F` (racemic) [Compound 14, Rac-N-[3-(1-{4-[4-(1-{4-[(3R)-2,6-dioxopiperidin-3-yl]phenyl}piperidine-4-carbonyl)piperazine-1-carbonyl]phenyl}-3-(pyridin-4-yl)-1H-pyrazol-4-yl)-2-fluorophenyl]propane-1-sulfonamide], for which the DC50 lay in the range of 0.05 to 0.5 µM and the Dmax is 30 to 70%.
The corresponding values for `CCCS(=O)(=O)Nc1cccc(-c2nc(C3CCN(CC4CCN(C(=O)C5CCN(c6ccc(C7CCC(=O)NC7=O)cn6)CC5)CC4)CC3)sc2-c2ccnc(N)n2)c1F` (racemic) [Compound 213, Rac-N-{3-[5-(2-aminopyrimidin-4-yl)-2-(1-{[1-(1-{5-[(3R)-2,6-dioxopiperidin-3-yl]pyridin-2-yl}piperidine-4-carbonyl)piperidin-4-yl]methyl}piperidin-4-yl)-1,3-thiazol-4-yl]-2-fluorophenyl}propane-1-sulfonamide] are under 0.01 µM and over 70%.
In turn, `CCCS(=O)(=O)Nc1cccc(-c2nc(C(C)(C)C)sc2-c2ccnc(Nc3cnn(C4CCN(C(=O)C5CCN(c6ccc(C(=O)NC7CCC(=O)NC7=O)nc6)CC5)CC4)c3)n2)c1F` (racemic) [Compound 107, Rac-5-[4-(4-{4-[(4-{2-tert-butyl-4-[2-fluoro-3-(propane-1-sulfonamido)phenyl]-1,3-thiazol-5-yl}pyrimidin-2-yl)amino]-1H-pyrazol-1-yl}piperidine-1-carbonyl)piperidin-1-yl]-N-[(3R)-2,6-dioxopiperidin-3-yl]pyridine-2-carboxamide] had a DC50 of 0.01 to 0.05 µM and a Dmax of 30 to 70%.
For `CCCS(=O)(=O)Nc1cccc(-c2nc(C3CCN(C(=O)C4(C)CCN(C(=O)C5CCN(c6ccc(C7CCC(=O)NC7=O)cc6)CC5)CC4)CC3)sc2-c2ccncn2)c1F` (racemic) [Compound 178, Rac-N-[3-(2-{1-[1-(1-{4-[(3R)-2,6-dioxopiperidin-3-yl]phenyl}piperidine-4-carbonyl)-4-methylpiperidine-4-carbonyl]piperidin-4-yl}-5-(pyrimidin-4-yl)-1,3-thiazol-4-yl)-2-fluorophenyl]propane-1-sulfonamide], in that order: under 0.01 µM and over 70%.
As to `CCN(C)S(=O)(=O)Nc1cccc(-c2nc(C(C)(C)C)sc2-c2ccnc(Nc3ccc(N4CCN(C(=O)C5CN(c6ccc(C7CCC(=O)NC7=O)cn6)C5)CC4)cn3)n2)c1F` (racemic) [Compound 53, Rac-(3S)-3-[6-(3-{4-[6-({4-[2-tert-butyl-4-(3-{[ethyl(methyl)sulfamoyl]amino}-2-fluorophenyl)-1,3-thiazol-5-yl]pyrimidin-2-yl}amino)pyridin-3-yl]piperazine-1-carbonyl}azetidin-1-yl)pyridin-3-yl]piperidine-2,6-dione], the DC50 is under 0.01 µM and the Dmax was over 70%.
In the case of `CCCS(=O)(=O)Nc1cccc(-c2nc(C3(C)CCN(C(=O)C4CCN(CC5CCN(c6ccc(C7CCC(=O)NC7=O)cn6)CC5)CC4)CC3)sc2-c2ccnc(N)n2)c1F` (racemic) [Compound 218, Rac-N-{3-[5-(2-aminopyrimidin-4-yl)-2-(1-{1-[(1-{5-[(3R)-2,6-dioxopiperidin-3-yl]pyridin-2-yl}piperidin-4-yl)methyl]piperidine-4-carbonyl}-4-methylpiperidin-4-yl)-1,3-thiazol-4-yl]-2-fluorophenyl}propane-1-sulfonamide], the DC50 was in the range of 0.05 to 0.5 µM and the Dmax was over 70%.
For `CCCS(=O)(=O)Nc1cccc(-c2nc(C3CCN(C(=O)C4CCN(CC5CCN(c6ccc(C7CCC(=O)NC7=O)cc6)CC5)CC4)CC3)sc2-c2ccnc(N)n2)c1F` (racemic) [Compound 228, Rac-N-{3-[5-(2-aminopyrimidin-4-yl)-2-(1-{1-[(1-{4-[(3R)-2,6-dioxopiperidin-3-yl]phenyl}piperidin-4-yl)methyl]piperidine-4-carbonyl}piperidin-4-yl)-1,3-thiazol-4-yl]-2-fluorophenyl}propane-1-sulfonamide], in that order: under 0.01 µM and over 70%.
`CCCS(=O)(=O)Nc1cccc(-c2nc(C(C)(C)C)sc2-c2ccnc(NC3CC4(C3)CN(C(=O)C3CCN(c5cccc6c5n(C)c(=O)n6C5CCC(=O)NC5=O)CC3)C4)n2)c1F` (racemic) [Compound 160, Rac-N-{3-[2-tert-butyl-5-(2-{[2-(1-{1-[(3R)-2,6-dioxopiperidin-3-yl]-3-methyl-2-oxo-2,3-dihydro-1H-1,3-benzodiazol-4-yl}piperidine-4-carbonyl)-2-azaspiro[3.3]heptan-6-yl]amino}pyrimidin-4-yl)-1,3-thiazol-4-yl]-2-fluorophenyl}propane-1-sulfonamide] registered a Dmax of 30 to 70%.
The compound `CCCS(=O)(=O)Nc1cccc(-c2nc(C3(C)CCN(C(=O)CN4CCN(c5ccc6c(c5)C(=O)N(C5CCC(=O)NC5=O)C6=O)CC4)CC3)sc2-c2ccnc(N)n2)c1F` (racemic) [Compound 232, Rac-N-{3-[5-(2-aminopyrimidin-4-yl)-2-{1-[2-(4-{2-[(3R)-2,6-dioxopiperidin-3-yl]-1,3-dioxo-2,3-dihydro-1H-isoindol-5-yl}piperazin-1-yl)acetyl]-4-methylpiperidin-4-yl}-1,3-thiazol-4-yl]-2-fluorophenyl}propane-1-sulfonamide] yielded a DC50 of 0.05 to 0.5 µM and a Dmax of 30 to 70%.
`CCCS(=O)(=O)Nc1cccc(-c2nc(C(C)(C)C)sc2-c2ccnc(Nc3ccc(N4CCN(C(=O)[C@H]5CC[C@H](Oc6ccc(C7CCC(=O)NC7=O)cn6)CC5)CC4)c(F)c3)n2)c1F` (mixture of isomers) [Compound 50, N-[3-(2-tert-butyl-5-{2-[(3-fluoro-4-{4-[(1r,4r)-4-({5-[(3RS)-2,6-dioxopiperidin-3-yl]pyridin-2-yl}oxy)cyclohexanecarbonyl]piperazin-1-yl}phenyl)amino]pyrimidin-4-yl}-1,3-thiazol-4-yl)-2-fluorophenyl]propane-1-sulfonamide] returned a DC50 of 0.01 to 0.05 µM and a Dmax of over 70%.
Take `CCCS(=O)(=O)Nc1cccc(-c2nc(-c3ccc(N4CCN(C(=O)CC5CCN(c6ccc(C7CCC(=O)NC7=O)cn6)CC5)CC4)cc3)sc2-c2ccnc(N)n2)c1F` (racemic) [Compound 189, Rac-N-{3-[5-(2-aminopyrimidin-4-yl)-2-(4-{4-[2-(1-{5-[(3R)-2,6-dioxopiperidin-3-yl]pyridin-2-yl}piperidin-4-yl)acetyl]piperazin-1-yl}phenyl)-1,3-thiazol-4-yl]-2-fluorophenyl}propane-1-sulfonamide]: the DC50 was under 0.01 µM and the Dmax was over 70%.
With `CCCS(=O)(=O)Nc1cccc(-c2nc(-c3ccc(N4CCN(C(=O)C5CCN(c6ccc(C7CCC(=O)NC7=O)cc6)CC5)CC4)cc3)sc2-c2ccnc(N)n2)c1F` (racemic) [Compound 190, Rac-N-{3-[5-(2-aminopyrimidin-4-yl)-2-{4-[4-(1-{4-[(3R)-2,6-dioxopiperidin-3-yl]phenyl}piperidine-4-carbonyl)piperazin-1-yl]phenyl}-1,3-thiazol-4-yl]-2-fluorophenyl}propane-1-sulfonamide], the DC50 lay within 0.01 to 0.05 µM and the Dmax was 30 to 70%.
